target: T1, human AR (Homo sapiens, UniProt P10275); assay: Competitive AR binding assay against [3H]-R1881 in transiently transfected COS-1 cells; details: Table 1; compound 13.4 μM; [3H]-R1881 1.34 nM; complete inhibition equals 100%
T1 construct: expressed in transfected cells; host or cells: COS-1
T1 sequence (P10275 1-920): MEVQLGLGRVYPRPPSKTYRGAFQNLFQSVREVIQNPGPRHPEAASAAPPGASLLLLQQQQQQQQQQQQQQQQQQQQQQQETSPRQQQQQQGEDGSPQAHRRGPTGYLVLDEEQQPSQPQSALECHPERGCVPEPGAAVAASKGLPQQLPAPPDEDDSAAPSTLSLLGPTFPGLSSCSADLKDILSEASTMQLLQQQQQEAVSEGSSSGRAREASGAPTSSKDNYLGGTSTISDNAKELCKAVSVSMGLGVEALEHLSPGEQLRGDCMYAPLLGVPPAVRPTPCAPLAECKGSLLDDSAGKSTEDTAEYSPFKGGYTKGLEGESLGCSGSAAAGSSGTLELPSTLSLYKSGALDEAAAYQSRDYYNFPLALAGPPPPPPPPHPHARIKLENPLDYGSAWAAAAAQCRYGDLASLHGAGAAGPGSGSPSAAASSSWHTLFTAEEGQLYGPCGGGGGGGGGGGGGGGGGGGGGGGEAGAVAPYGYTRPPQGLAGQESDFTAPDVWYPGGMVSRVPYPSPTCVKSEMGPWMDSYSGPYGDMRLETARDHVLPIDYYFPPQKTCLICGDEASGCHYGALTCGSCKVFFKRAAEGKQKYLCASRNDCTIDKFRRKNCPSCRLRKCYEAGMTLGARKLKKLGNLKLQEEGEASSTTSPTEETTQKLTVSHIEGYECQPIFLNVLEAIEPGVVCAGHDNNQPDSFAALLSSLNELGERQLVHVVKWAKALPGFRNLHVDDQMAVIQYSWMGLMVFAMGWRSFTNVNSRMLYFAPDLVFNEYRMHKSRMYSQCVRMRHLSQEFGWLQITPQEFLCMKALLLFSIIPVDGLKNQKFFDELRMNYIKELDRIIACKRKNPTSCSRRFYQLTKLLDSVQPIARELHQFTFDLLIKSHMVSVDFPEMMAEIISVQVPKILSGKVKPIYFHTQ
Protocol: Competitive AR Binding Assay.
AR binding was measured by a competitive assay against [^3H]-R1881 (PerkinElmer) in transiently transfected COS-1 cells. One day before transfection, COS-1 cells were seeded into 2 ml of DMEM (Dulbecco's modified Eagle medium, Gipco) with 10% dextran-charcoal-treated fetal bovine serum and 0.25% (vol/vol) Penicillin-Streptomysin (Euroclone) at a density of 140×10^3 cells/well. After medium change to DMEM 2.5% FBS, the cells were transfected for 24 hours with 10 ng/well of human AR expression vector pSG5 hAR by using the TransIT method (Micrus Bio TransIT LT1, Transfection Reagent). After 36 hours, the cells where treated with tested compounds using 10000 fold molarities compared to labelled R1881 (1.34 nM). After 2 hours of incubation at 37° C., the medium was removed. The cells were removed from the wells to 150 μl of 1× phosphate buffered saline (PBS), transferred to Eppendorf tubes and centrifuged at 4° C. using 4000×g for 5 min, and then washed twice with 150 μl of PBS. The cell pellets were dissolved to 50 μl of 0.5M NaOH and incubated for 15 min at 56° C., after which the samples (three replicates for each sample compound) were transferred to liquid twinkle tubes with 3 ml of OptiPhase HiSafe 3 twinkle solution (PerkinElmer) and radioactivity of AR-bound [^3H]-R1881 determined. The results were measured with LKB WALLAC 1214 racbeta equipment. The ability of test compounds to bind AR is reported as reduction in bound radioactivity obtained with 1.34 nM [^3H]-R1881.
The results (% inhibition) were calculated as: % inhibition=100−[100×(averagecompound/average[3H]-R1881)].

SMILES	Inhibition of [3H]-R1881 binding at 1.34 nM ± S.D. [%]
COc1ccc(C2=NOC(Cc3ccccc3)(c3ccccc3)C2)cc1 (single isomer, unassigned) [Example 14a, 5-Benzyl-3-(4-methoxyphenyl)-5-phenyl-4,5-dihydro-isoxazole]	29.6 ± 3.4
CC(C)CN1C(c2ccc([N+](=O)[O-])cc2)=NOC1(C)Cc1ccccc1 (single isomer, unassigned) [Example 61a, 5-Benzyl-4-isobutyl-5-methyl-3-(4-nitro-phenyl)-4,5-dihydro-[1,2,4]oxadiazole]	14.9 ± 1.8
COc1cccc(C2=NOC(Cc3ccccc3)(c3ccccc3)C2)c1 (single isomer, unassigned) [Example 13a, 5-Benzyl-5-phenyl-3-(3-methoxyphenyl)-4,5-dihydro-isoxazole]	31.1 ± 5.6
COc1ccc(CC2=NOC(C)(Cc3ccccc3)N2CC(C)C)cc1 (single isomer, unassigned) [Example 65a, 5-Benzyl-4-isobutyl-3-(4-methoxy-benzyl)-5-methyl-4,5-dihydro-[1,2,4]oxadiazole]	0
COc1ccc(C2=NOC(Cc3ccccc3)(c3ccccc3)C2)cc1 (single isomer, unassigned) [Example 14b, 5-Benzyl-3-(4-methoxyphenyl)-5-phenyl-4,5-dihydro-isoxazole]	0
CC(C)CN1C(c2ccc([N+](=O)[O-])cc2)=NOC1(C)Cc1ccccc1 (single isomer, unassigned) [Example 61b, 5-Benzyl-4-isobutyl-5-methyl-3-(4-nitro-phenyl)-4,5-dihydro-[1,2,4]oxadiazole]	0
CCCCN1C(Cc2ccccc2)=NOC1(C)Cc1ccccc1 (stereo not shown) [Example 55b, 3,5-Dibenzyl-4-butyl-5-methyl-4,5-dihydro-[1,2,4]oxadiazole]	32.7 ± 3.5
COc1cccc(C2=NOC(Cc3ccccc3)(c3ccccc3)C2)c1 (single isomer, unassigned) [Example 13b, 5-Benzyl-5-phenyl-3-(3-methoxyphenyl)-4,5-dihydro-isoxazole]	1.6 ± 6.6

Continued, values first:

Inhibition of [3H]-R1881 binding at 1.34 nM ± S.D. [%]	SMILES
0	O=[N+]([O-])c1ccc(C2=NOC3CCCCC23)cc1 (single isomer, unassigned) [Example 34b, 3-(4-Nitro-phenyl)-3a,4,5,6,7,7a-hexahydro-benzo[d]-isoxazole]
17.0 ± 7.0	Fc1ccccc1C1=NOC2CCCCC12 (single isomer, unassigned) [Example 27a, 3-(2-Fluoro-phenyl)-3a,4,5,6,7,7a-hexahydro-benzo[d]-isoxazole]
55.9 ± 1.1	COc1ccccc1C1=NOC(Cc2ccccc2)(c2ccccc2)C1 (single isomer, unassigned) [Example 12a, 5-Benzyl-3-(2-methoxyphenyl)-5-phenyl-4,5-dihydro-isoxazole]
30.2 ± 6.0	COc1ccccc1C1=NOC(Cc2ccccc2)(c2ccccc2)C1 (single isomer, unassigned) [Example 12b, 5-Benzyl-3-(2-methoxyphenyl)-5-phenyl-4,5-dihydro-isoxazole]
20.3 ± 9.9	Clc1cccc(C2=NOC3CCCCC23)c1 (single isomer, unassigned) [Example 31a, 3-(3-Chloro-phenyl)-3a,4,5,6,7,7a-hexahydro-benzo[d]-isoxazole]
0	Fc1ccccc1C1=NOC2CCCCC12 (single isomer, unassigned) [Example 27b, 3-(2-Fluoro-phenyl)-3a,4,5,6,7,7a-hexahydro-benzo[d]-isoxazole]
59.7 ± 2.7	CC1(Cc2ccccc2)CC(c2ccccc2Cl)=NO1 (stereo not shown) [Example 5b, 5-Benzyl-3-(2-chlorophenyl)-5-methyl-4,5-dihydroisoxazole]
30.2 ± 3.8	Clc1ccccc1C1=NOC2CCCCC12 (single isomer, unassigned) [Example 30a, 3-(2-Chloro-phenyl)-3a,4,5,6,7,7a-hexahydro-benzo[d]-isoxazole]
0	Clc1cccc(C2=NOC3CCCCC23)c1 (single isomer, unassigned) [Example 31b, 3-(3-Chloro-phenyl)-3a,4,5,6,7,7a-hexahydro-benzo[d]-isoxazole]
66.3 ± 6.5	Clc1ccccc1C1=NOC2CCCCC12 (single isomer, unassigned) [Example 30b, 3-(2-Chloro-phenyl)-3a,4,5,6,7,7a-hexahydro-benzo[d]-isoxazole]
55.7 ± 1.9	CCCCN1C(c2cccc(Cl)c2)=NOC1(C)Cc1ccccc1 (stereo not shown) [Example 50b, 5-Benzyl-4-butyl-3-(3-chloro-phenyl)-5-methyl-4,5-dihydro-[1,2,4]oxadiazole]

same assay, conditions: Table 1; compound 13.4 μM; [3H]-R1881 1.34 nM; complete inhibition equals 100%; read-out: Inhibition of [3H]-R1881 binding at 1.34 nM ± S.D.

SMILES	inhibition at 13.4 µM [%]
CCCCN1C(Cc2ccccc2)=NOC1(C)Cc1ccccc1 (stereo not shown) [Example 55a, 3,5-Dibenzyl-4-butyl-5-methyl-4,5-dihydro-[1,2,4]oxadiazole]	35.1 ± 5.8
CC(C)CN1C(CCCc2ccccc2)=NOC1(C)Cc1ccccc1 (stereo not shown) [Example 68ab, 5-Benzyl-4-isobutyl-5-methyl-3-(3-phenyl-propyl)-4,5-dihydro-[1,2,4]oxadiazole]	14.7 ± 1
CC(C)CN1C(CCc2ccccc2)=NOC1(C)Cc1ccccc1 (stereo not shown) [Example 66ab, 5-Benzyl-4-isobutyl-5-methyl-3-phenethyl-4,5-dihydro-[1,2,4]oxadiazole]	17.8 ± 2.4
CCCCN1C(CCc2ccccc2)=NOC1(C)Cc1ccccc1 (stereo not shown) [Example 57ab, 5-Benzyl-4-butyl-5-methyl-3-phenethyl-4,5-dihydro-[1,2,4]oxadiazole]	48.7 ± 3.3
CCCCN1C(CCc2ccc(OC)cc2)=NOC1(C)Cc1ccccc1 (stereo not shown) [Example 58ab, 5-Benzyl-4-butyl-3-[2-(4-methoxy-phenyl)-ethyl]-5-methyl-4,5-dihydro-[1,2,4]oxadiazole]	8.2 ± 1.3
CCCCN1C(c2ccc3ccccc3c2)=NOC1(C)Cc1ccccc1 (stereo not shown) [Example 54ab, 5-Benzyl-4-butyl-5-methyl-3-napthalen-2-yl-4,5-dihydro-[1,2,4]oxadiazole]	28.2 ± 3

Results, then the molecule that gave them:

inhibition at 13.4 µM [%]	SMILES
51 ± 2.4	CC1(Cc2ccccc2)CC(c2ccc(Cl)cc2)=NO1 (stereo not shown) [Example 7ab, 5-Benzyl-3-(4-chlorophenyl)-5-methyl-4,5-dihydro-isoxazole]
69.9 ± 3.3	CC1(Cc2ccccc2)CC(c2ccccc2F)=NO1 (stereo not shown) [Example 4ab, 5-Benzyl-3-(2-fluorophenyl)-5-methyl-4,5-dihydro-isoxazole]
63.8 ± 1.8	CCCCN1C(c2cccc(Cl)c2)=NOC1(C)Cc1ccccc1 (stereo not shown) [Example 50a, 5-Benzyl-4-butyl-3-(3-chloro-phenyl)-5-methyl-4,5-dihydro-[1,2,4]oxadiazole]
64.2 ± 2.2	COc1cccc(C2=NOC(C)(Cc3ccccc3)C2)c1 (stereo not shown) [Example 2ab, 5-Benzyl-3-(3-methoxyphenyl)-5-methyl-4,5-dihydro-isoxazole]
42.7 ± 6.6	CC1(Cc2ccccc2)CC(c2ccccc2Cl)=NO1 (stereo not shown) [Example 5a, 5-Benzyl-3-(2-chlorophenyl)-5-methyl-4,5-dihydroisoxazole]
31.4 ± 1.9	CC1(Cc2ccccc2)CC(c2cccc(Cl)c2)=NO1 (stereo not shown) [Example 6ab, 5-Benzyl-3-(3-chlorophenyl)-5-methyl-4,5-dihydroisoxazole]

Reference: patent US9278942B2, “Non-steroidal compounds as androgen receptor modulators” (FLX Discoveries Oy, priority 2011, dated 2016)
